molecular target: Heat shock protein HSP 90-alpha (Homo sapiens) (UniProt P07900); assay: Hsp90 inhibition measured as HER-2 degradation in MCF-7 cells

Going from `CCCCn1c(Cc2cc(OC)ccc2OC)nc2c(N)ncnc21` to `CCCCn1c(Cc2cc(OC)ccc2Br)nc2c(N)ncnc21`, the IC50 falls from 12000 nM to 8000 nM (1.5-fold).

`COc1ccc(I)c(Sc2nc3c(N)ncnc3n2CCCNC(C)C)c1` and `CCC(C)NCCCn1c(Sc2cc(OC)ccc2I)nc2c(N)ncnc21` (stereo unspecified) are within 1.5-fold of each other in IC50: 180 nM for the first, 210 nM for the second.

Going from `CCC(CC)NCCCn1c(Sc2cc(OC)ccc2I)nc2c(N)ncnc21` to `COc1ccc(I)c(Sc2nc3c(N)ncnc3n2CCCNC(C)(C)C)c1`, the IC50 falls from 210 nM to 140 nM (1.5-fold). The second is the more potent here.

First: CCCCn1c(Sc2cc(OC)ccc2OC)nc2c(N)ncnc21
Second: COc1ccc(I)c(Sc2nc3c(N)ncnc3n2CCC=C(C)C)c1
The IC50 of the first is 9.5-fold higher: 3500 nM for the first, 370 nM for the second. The second is the more potent here.

Compared with `CCCCn1c(Cc2cc(OC)ccc2I)nc2c(N)ncnc21`, `CCCCn1c(Cc2cc(OC)ccc2Cl)nc2c(N)ncnc21` is 4-fold higher in IC50: 5000 nM for the first, 20000 nM for the second.

For `C#CCCCn1c(Sc2cc(OC)ccc2I)nc2c(N)nc(F)nc21`, the IC50 was 360 nM.

Reference: ChEMBL document CHEMBL1148609, “Orally active purine-based inhibitors of the heat shock protein 90” (J Med Chem, 2006)
